Experimental data: patent US20260094669A1, “EPITOPE PREDICTION VIA A LEARNED GENOTYPE NETWORK ACROSS CLASS II MHC ALLELES” (Seattle Project Corp., priority 2023, published 2026)

T1: HLA-DP of Raji cells (DPA1*02:02/DPB1*01:01) (human, UniProt P20036 29-222; P04440 30-225, limits assumed)
T1 construct: whole, on cells; also called Raji_25mer DP
T1 MHC II alpha: not shown
T1 MHC II beta: not shown

B1: MTEYKLVVVGAC (peptide)
peptide: MTEYKLVVVGAC
notes: KRAS G12C peptide eluted from HLA class II of cells engineered to express a KRAS G12C construct; also called Peptide_098class2; KRAS MHC II Peptide 098
B2: GACGVGKSALTIQLI (peptide)
peptide: GACGVGKSALTIQLI
notes: KRAS G12C peptide eluted from HLA class II of cells engineered to express a KRAS G12C construct; also called Peptide_099class2; KRAS MHC II Peptide 099

test system: CD4+ T cell; assay: not given; settings: CD4+ immunogenicity label (1/0) used in logistic regression; ELISpot response data from Ott et al.; cited from earlier work

Row | Molecule | y
1 | KGEKNGMTFSSTKDYVNNV | 0
2 | ALLQNVELRRNVLVSPTPLAN | 0
3 | YLSHTLGAASSFMRPTVPPPQF | 0
4 | VTLNDMKARQKALVRERERQLA | 0
5 | TIKNSDKNVVLEHFG | 0
6 | SHKLESIKEITNFKDAKQLL | 0
7 | NLKAPRLLFAPEYGPKLKLRALEDRHS | 0
8 | NNSKKKWFLFQDSKKIQVEQPQ | 0
9 | VNGISSQPQVPFYPNLQKSQYYSTV | 0
10 | DRSVLAKKLKFVTLVFRHGDRSPID | 0
11 | ELQYRGRELRFNLIANQHLLAPGFVSETR | 1
12 | TFPKKIQMLARDFLDEY | 0
13 | SHNELADSGIPENSFNVSSLVE | 0
14 | PAHPSQGAVPPSRAAAEPHLKPSPSELQTA | 1
15 | SDAFSGLTALPQSILLFGP | 0
16 | GSVLQFMPFTTVSELMKVSAMSSPKV | 0
17 | LNTGLFRIKFKEPLENLI | 0
18 | RRGGALFASRPRFTPL | 0
19 | LENNANHDETSFLLPRKESNIVD | 0
20 | GHQKLPGKIHLFEAEFTQVAKKEPDG | 1
21 | RGQIKLADFRLARLYSSEESR | 0
22 | NQVLASRYGIRGFSTIKIFQKGESPV | 0
23 | EDSDKLFESKAELADHQKF | 0
24 | SGSPPLRVSVGDFSQEFSPIQEAQQD | 1
25 | ERFWRNILLLSLHKGSLYPRIPGLGKE | 0

Row | Molecule | y
26 | PETGEIQVKTFLDREQRESYELKV | 0
27 | SPIKLVQKVASKIPFPDRITEESV | 0
28 | SLPSNVLSSLVLVPLHTTPK | 0
29 | ARLQSKEYPVIFKSIMRQRLISPQL | 0
30 | DRASFLLTDYALSPDGSIRKATG | 1
31 | SHLASLKNNVSPVLRSHSFSDPSPKFA | 1
32 | FAKGFRESDLNSWPVAPRPLLSV | 0
33 | RPAGRTQLLWTPAAPTAMAEVGPGHTP | 1
34 | GLTRISIQRAQPLPPCLPSFRPPTALQGLS | 0
35 | HASHLQEHQRIYTGEKPFKCDT | 0
36 | TETVNHHYLLFQNTDLGSFHDLLR | 1
37 | SLTEESGGAVAFFPGNLSTSSSA | 0
38 | SSHYKFSKPALQSQSISLVQQS | 1
39 | LGETMGQVTEKLQPTYMEET | 0
40 | GRMSPSQFARVPGYVGSPLAAMNPK | 1
41 | GSGSQMPAWRTRGAISASSTQKTPTTRL | 0
42 | GPLQLPVTRKNMPLPGVVKLPPLPGS | 0
43 | SLRNNMFEISDRFIGIYKTYNITK | 0
44 | SRLQTRKNKKLALSSTPSNIAPSD | 1
45 | FCGTPDYIAPKIIAYQPYGKSVD | 0
46 | SSPLGRANGRRFANPRDSFSAMGFQR | 0
47 | SHTQTTLFHTFYELLIQKNKHK | 0
48 | EIHGKCENMTITSRGTTVTPTKETVSLG | 0
49 | DGVSEEFWLVDLLPSTHYT | 1
50 | GHEHQPDMQKSLLRAAFFGKCFLDR | 1

Row | Molecule | y
51 | LCPREEFLRLCKKIMMRSIQ | 0
52 | DGGRQHSGPRRHSGAGPKPSSSEWAVCWAP | 0
53 | PGGDSGELITDAHELGVAHPPGY | 0
54 | TGKPEMDFVRLAQLFARARPMGLF | 0
55 | LHTHYDYVSALHPVSTPSKEYTSA | 0
56 | MAGPKGFQYRALYPFRRER | 0
57 | KMQRRNDDKSILMHGLVSLRESSRG | 0
58 | LSPREEFLRLCKKIMMRSIQ | 1
59 | TTPSGSAEYMASEVVEVFTDQAT | 0
60 | TKRQVILLHTELERFLEYLPLRF | 0
61 | DEQGREAELARSGPSAAGPVRLKPGLVPGL | 0
62 | FPVVQSTEDVFPQGLPNEYAFVT | 0
63 | HLLQKQTSIQSPSLYGNSSPPLNK | 0
64 | SPGPRTAPRPGSQKQAGKDWQ | 0
65 | AASAAAFPSQRTSWEFLQSLVSIKQEK | 1
66 | WTPAAPTAMAEVGPGHTPAHPSQGAVPP | 1
67 | GDQYKATDFVADWAGTFKMVFTPKDGSG | 1
68 | DKGHQFHVHPLLHSGDDLDP | 0
69 | STQHADLTIIDNIKEMNFLRRYK | 0
70 | ASATEPANDSLFSPGAANLFSTYLAR | 0
71 | DSYHLYAYHEELSATVPSQWKKIG | 0
72 | EVVGGYTWPSGNIYQGYWAQGKR | 0
73 | SHQIHSYQLYTHPLLHPWDHRD | 0
74 | SHHTHSYQRYSHPLFLPGHRLDPPI | 0
75 | RGRLPAGAVRTLLSQVNKVWDQSS | 0

Row | Molecule | y
76 | MSQDIKKADEQIESMTYSTERKT | 0
77 | SPQSGGAATLAAQARLQPVHLDVWGEHERG | 0
78 | TTVTHERKQAKVVNPPIQEVGKGARK | 0
79 | TRNSFALVPSLQRLMLRKVALKNVDSSPS | 0
80 | DVTGPHLYSIYLHGSTDKLPYVTMGS | 0
81 | RYNSTAATNEVSEVTVFSKSPVT | 0
82 | VKQLERGEASVVDFKKNLEYAAT | 0
83 | RLVLGKFGDLTNNFSSPHAR | 0
84 | STEVEPKESPHLARHRHLMKTLVKSLST | 0
85 | PAPPPAVPKEHPAPPAPPPASAPTP | 0
86 | STLPVISDSTTKRRWSALVIGL | 0
87 | TKLKSKAPHWTNCILHEYKNLSTS | 0
88 | KHLPGVNFPGNQWNPVEGILPS | 0
89 | AAVRPEQRPAARGSRV | 0
90 | DGAWPVLLDKFVEWYKDKQMS | 0
91 | VTSPKASPVTFPAAAFPTASPANKD | 1
92 | PENDDLFMMPRIVDVTSLATEGG | 0
93 | KLRTIPLSDNTIFRRICTIAKHLE | 1
94 | TAQFAPSPGQPPALSPSYPGHRLPLQQG | 0
95 | EDLDANLRKLNFRLFVIRGQPAD | 0
96 | PASAKSRREFDKIELAYRR | 0
97 | WCTEMKRVFGFPVHYTDVSNMS | 0

test system: IFNγ-producing T cells (PBMCs); assay: ex vivo IFNγ ELISpot assay; type: cell-based, human; settings: PBMCs from single donor SE-0386

Row | Molecule | response to single peptides from CD8 pools, ex vivo ELISpot
98 | EYKLVVVGACG [Peptide_29] | demonstrated a response

same assay, conditions: patient G05-002-122 PBMCs following vaccination

Row | Molecule | responses to single 8-11mer peptides, ex vivo IFNγ ELISpot
99 | EYKLVVVGACG [Peptide_29] | confirmed responses

target: T2, HLA-DP of DBB cells (DPA1*01:03/DPB1*04:01) (human, UniProt P20036 29-222; P04440 30-225, limits assumed); assay: targeted MS of peptides eluted from HLA-DP IP (B7/21.1), DBB cells expressing KRAS G12C 25mer; settings: not given
T2 construct: whole, on cells; also called DBB_25mer DP
T2 sequence (P20036 29-222 limits assumed, chain 1 of 4, other chains not shown): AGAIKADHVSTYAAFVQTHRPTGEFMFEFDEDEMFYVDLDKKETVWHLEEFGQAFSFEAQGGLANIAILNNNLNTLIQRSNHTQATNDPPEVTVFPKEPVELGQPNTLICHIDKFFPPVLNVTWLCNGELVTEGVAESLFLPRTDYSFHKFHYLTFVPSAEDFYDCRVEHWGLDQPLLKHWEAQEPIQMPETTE
T2 sequence (P04440 30-225 limits assumed, chain 2 of 4, other chains not shown): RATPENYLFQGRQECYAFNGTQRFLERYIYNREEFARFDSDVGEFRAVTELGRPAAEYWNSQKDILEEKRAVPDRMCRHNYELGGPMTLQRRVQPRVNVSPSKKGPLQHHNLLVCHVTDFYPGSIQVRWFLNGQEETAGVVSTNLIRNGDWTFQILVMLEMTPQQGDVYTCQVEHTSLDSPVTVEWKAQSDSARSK

Row | Molecule | binding result
100 | B1 | binds

test system: rTCR Jurkat cells (CD69, CD25); assay: recombinant TCR (rTCR) Jurkat functional assay; type: cell-based, human; settings: co-culture with class II matched KAS116 cells

Row | Molecule | response of TCR969/TCR995 rTCR Jurkat cells to the peptide
101 | EYKLVVVGACG [Peptide_29] | confirmed responses

Target: T1, HLA-DP of Raji cells …
Assay: targeted MS of peptides eluted from HLA-DP IP (B7/21.1), Raji cells expressing KRAS G12C 25mer
Settings: not given

Row | Molecule | binding result
102 | B2 | binds

test system: CD4 or CD8 T cell depleted PBMCs; assay: CD4/CD8 depletions followed by IFNγ ELISpot or FluoroSpot; type: cell-based, human; settings: PBMCs from single donors; peptide #29: donor SE-0386
Method: CD4 or CD8 T cells were depleted from total PBMCs using Miltenyi MACS microbeads and columns. PBMCs were labeled with anti-CD4 or anti-CD8 microbeads before being run through a MACS Column placed in a MACS Separator magnet. Labeled cells remained in the column and the negative fractions were collected as either the CD8 or CD4 enriched population. Cells were then plated at 200,000 cells/well and stimulated overnight in an IFNγ ELISpot assay or FluoroSpot assay to detect IFNγ or IL-2.

Row | Molecule | responses in CD4 enriched (CD8 depleted) samples
103 | EYKLVVVGACG [Peptide_29] | demonstrated responses

same assay, conditions: class II long OLP pools deconvolution

Row | Molecule | T cell response in healthy donor SE-0386
104 | EYKLVVVGACG [Peptide_29] | CD4^+ T cell-dependent response
